Columns and labels:
oval-leafed pondweed [1] = test: Test Example 1: herbicidal activity, application before weed generation under submerged conditions (Table 16, symbol C); format: in vivo, oval-leafed pondweed (Monochoria vaginalis); settings: 320 g/ha applied herbicide
Outline: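 Emulsion formulation, water-diluted to set dose, was put onto the flooded surface (4 cm depth, alluvial soil) the same day weeds were sown and 2.5-leaf rice transplanted. After 3 weeks at 25-30 °C under glass, each species was rated 0 (≤5% kill) to 5 (≥90% kill).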

late watergrass = test: Test Example 2: herbicidal activity, application during weed generation under submerged conditions (Table 17, symbol A); format: in vivo, late watergrass (Echinochloa oryzicola); settings: AAH 320 g/ha; application during weed generation, submerged conditions
Outline: (§1)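 In this pot test, flooded alluvial soil (water depth 4 cm) holds all three species sown as a mixture. Once seedlings have one to two leaves, the compound's emulsion, thinned with water to the intended dose, is poured on the water; grading follows after three weeks on the earlier criteria.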

oval-leafed pondweed [2] = test: Test Example 2: herbicidal activity, application during weed generation under submerged conditions (Table 17, symbol C); format: in vivo, oval-leafed pondweed (Monochoria vaginalis); settings: AAH 320 g/ha; application during weed generation, submerged conditions
Outline: as §1

rice flat sedge = test: Test Example 3: herbicidal effect by foliage application, Wagner pot (Table 18, symbol E); format: in vivo, rice flat sedge (Cyperus iria); settings: amount of applied herbicide 320 g/ha
Outline: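 Plants were sown in alluvial soil held under 0.1–0.5 cm standing water and grown 14 days in a greenhouse at 25–30 °C. An emulsifiable formulation, water-diluted to the set dose, was then sprayed onto the foliage, and effects were scored three weeks later using previously defined criteria.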

green foxtail [3] = test: Test Example 4: herbicidal effect by soil treatment (Table 19, symbol G); format: in vivo, green foxtail (Setaria viridis); settings: amount of applied herbicide 320 g/ha
Outline: (§2)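 Three weeks of greenhouse growth at 25° C. to 30° C. followed a uniform surface spray of water-diluted emulsion at a predetermined herbicide amount. Seeds had been sown beforehand under about 1.5 cm of sterilized diluvial soil. Grading followed criteria set out in an earlier test.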

wild oat [4] = test: Test Example 4: herbicidal effect by soil treatment (Table 19, symbol I); format: in vivo, wild oat (Avena fatua); settings: amount of applied herbicide 320 g/ha
Outline: as §2

blackgrass = test: Test Example 4: herbicidal effect by soil treatment (Table 19, symbol J); format: in vivo, blackgrass (Alopecurus myosuroides); settings: amount of applied herbicide 320 g/ha
Outline: as §2

Italian ryegrass [5] = test: Test Example 4: herbicidal effect by soil treatment (Table 19, symbol K); format: in vivo, Italian ryegrass (Lolium multiflorum); settings: amount of applied herbicide 320 g/ha
Outline: as §2

velvetleaf [6] = test: Test Example 4: herbicidal effect by soil treatment (Table 19, symbol M); format: in vivo, velvetleaf (Abutilon theophrasti); settings: amount of applied herbicide 320 g/ha
Outline: as §2

redroot pigweed = test: Test Example 4: herbicidal effect by soil treatment (Table 19, symbol N); format: in vivo, redroot pigweed (Amaranthus retroflexus); settings: amount of applied herbicide 320 g/ha
Outline: as §2

chickweed = test: Test Example 4: herbicidal effect by soil treatment (Table 19, symbol P); format: in vivo, common chickweed (Stellaria media); settings: amount of applied herbicide 320 g/ha
Outline: as §2

southern crabgrass = test: Test Example 5: herbicidal effect by foliage application, plastic box (Table 20, symbol F); format: in vivo, southern crabgrass (Digitaria ciliaris); settings: foliage application, AAH 320 g/ha, evaluated three weeks after application
Outline: (§3)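 Plants sown in sterilized diluvial soil and grown 14 days in a greenhouse at 25° C to 30° C, then sprayed on the foliage with the compound's emulsion diluted in water to a predetermined herbicide amount. Injury to weeds and crops scored three weeks after application on a visual rating scale.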

green foxtail [7] = test: Test Example 5: herbicidal effect by foliage application, plastic box (Table 20, symbol G); format: in vivo, green foxtail (Setaria viridis); settings: foliage application, AAH 320 g/ha, evaluated three weeks after application
Outline: as §3

wild oat [8] = test: Test Example 5: herbicidal effect by foliage application, plastic box (Table 20, symbol I); format: in vivo, wild oat (Avena fatua); settings: foliage application, AAH 320 g/ha, evaluated three weeks after application
Outline: as §3

Italian ryegrass [9] = test: Test Example 5: herbicidal effect by foliage application, plastic box (Table 20, symbol K); format: in vivo, Italian ryegrass (Lolium multiflorum); settings: foliage application, AAH 320 g/ha, evaluated three weeks after application
Outline: as §3

velvetleaf [10] = test: Test Example 5: herbicidal effect by foliage application, plastic box (Table 20, symbol M); format: in vivo, velvetleaf (Abutilon theophrasti); settings: foliage application, AAH 320 g/ha, evaluated three weeks after application
Outline: as §3

persian speedwell = test: Test Example 5: herbicidal effect by foliage application, plastic box (Table 20, symbol R); format: in vivo, Persian speedwell (Veronica persica); settings: foliage application, AAH 320 g/ha, evaluated three weeks after application
Outline: as §3

| Compound | Herbicidal effect on C: oval-leafed pondweed (grade 0-5) (oval-leafed pondweed [1]) | herbicidal effect rating, A: late watergrass (late watergrass) | herbicidal effect rating, C: oval-leafed pondweed (oval-leafed pondweed [2]) | herbicidal effect on E: rice flat sedge (rice flat sedge) | herbicidal effect on G: green foxtail (green foxtail [3]) | herbicidal effect on I: wild oat (wild oat [4]) | herbicidal effect on J: blackgrass (blackgrass) | herbicidal effect on K: Italian ryegrass (Italian ryegrass [5]) | herbicidal effect on M: velvetleaf (velvetleaf [6]) | herbicidal effect on N: redroot pigweed (redroot pigweed) | herbicidal effect on P: chickweed (chickweed) | F: southern crabgrass, herbicidal effect (criteria 0-5) (southern crabgrass) | G: green foxtail, herbicidal effect (criteria 0-5) (green foxtail [7]) | I: wild oat, herbicidal effect (criteria 0-5) (wild oat [8]) | K: Italian ryegrass, herbicidal effect (criteria 0-5) (Italian ryegrass [9]) | M: velvetleaf, herbicidal effect (criteria 0-5) (velvetleaf [10]) | R: persian speedwell, herbicidal effect (criteria 0-5) (persian speedwell) |
| --- | --- | --- | --- | --- | --- | --- | --- | --- | --- | --- | --- | --- | --- | --- | --- | --- | --- |
| Cc1nn(C)c(=O)c(-c2c(-c3ccc(OC(F)F)cc3)sc3ccc(F)cc23)c1OC(=O)OCCCl [2-293] | 4 (Herbicidal rate of 70% or more and less than 90%) | 4 (Herbicidal rate of 70% or more and less than 90%) | 4 (Herbicidal rate of 70% or more and less than 90%) | 5 (Herbicidal rate of 90% or more (almost completely withered)) | 5 (Herbicidal rate of 90% or more (almost completely withered)) | 0 (Herbicidal rate of 5% or less (almost no effect)) | 5 (Herbicidal rate of 90% or more (almost completely withered)) | 5 (Herbicidal rate of 90% or more (almost completely withered)) | 5 (Herbicidal rate of 90% or more (almost completely withered)) | 5 (Herbicidal rate of 90% or more (almost completely withered)) | 4 (Herbicidal rate of 70% or more and less than 90%) | 5 (Herbicidal rate of 90% or more (almost completely withered)) | 5 (Herbicidal rate of 90% or more (almost completely withered)) | 3 (Herbicidal rate of 40% or more and less than 70%) | 5 (Herbicidal rate of 90% or more (almost completely withered)) | 5 (Herbicidal rate of 90% or more (almost completely withered)) | 5 (Herbicidal rate of 90% or more (almost completely withered)) |
| Cc1nn(C)c(=O)c(-c2c(-c3ccc(OC(F)F)cc3)sc3ccc(F)cc23)c1OC(=S)Sc1ccccc1 [2-298] | 3 (Herbicidal rate of 40% or more and less than 70%) | 3 (Herbicidal rate of 40% or more and less than 70%) | 0 (Herbicidal rate of 5% or less (almost no effect)) | 5 (Herbicidal rate of 90% or more (almost completely withered)) | 0 (Herbicidal rate of 5% or less (almost no effect)) | 0 (Herbicidal rate of 5% or less (almost no effect)) | 0 (Herbicidal rate of 5% or less (almost no effect)) | 0 (Herbicidal rate of 5% or less (almost no effect)) | 2 (Herbicidal rate of 20% or more and less than 40%) | 3 (Herbicidal rate of 40% or more and less than 70%) | 0 (Herbicidal rate of 5% or less (almost no effect)) | 3 (Herbicidal rate of 40% or more and less than 70%) | 5 (Herbicidal rate of 90% or more (almost completely withered)) | 4 (Herbicidal rate of 70% or more and less than 90%) | 5 (Herbicidal rate of 90% or more (almost completely withered)) | 5 (Herbicidal rate of 90% or more (almost completely withered)) | 5 (Herbicidal rate of 90% or more (almost completely withered)) |
| Cc1nn(C)c(=O)c(-c2c(-c3ccc(OC(F)F)cc3)sc3ccc(F)cc23)c1OCC(=O)c1ccccc1 [2-305] | 2 (Herbicidal rate of 20% or more and less than 40%) | 3 (Herbicidal rate of 40% or more and less than 70%) | 0 (Herbicidal rate of 5% or less (almost no effect)) | 3 (Herbicidal rate of 40% or more and less than 70%) | 0 (Herbicidal rate of 5% or less (almost no effect)) | 0 (Herbicidal rate of 5% or less (almost no effect)) | 0 (Herbicidal rate of 5% or less (almost no effect)) | 0 (Herbicidal rate of 5% or less (almost no effect)) | 1 (Herbicidal rate of 5% or more and less than 20%) | 4 (Herbicidal rate of 70% or more and less than 90%) | 1 (Herbicidal rate of 5% or more and less than 20%) | 1 (Herbicidal rate of 5% or more and less than 20%) | 5 (Herbicidal rate of 90% or more (almost completely withered)) | 1 (Herbicidal rate of 5% or more and less than 20%) | 4 (Herbicidal rate of 70% or more and less than 90%) | 5 (Herbicidal rate of 90% or more (almost completely withered)) | 5 (Herbicidal rate of 90% or more (almost completely withered)) |
| Cc1nn(C)c(=O)c(-c2c(-c3ccc(O)cc3)sc3ccc(F)cc23)c1O [2-337] | 3 (Herbicidal rate of 40% or more and less than 70%) | 0 (Herbicidal rate of 5% or less (almost no effect)) | 0 (Herbicidal rate of 5% or less (almost no effect)) | 3 (Herbicidal rate of 40% or more and less than 70%) | 0 (Herbicidal rate of 5% or less (almost no effect)) | 0 (Herbicidal rate of 5% or less (almost no effect)) | 0 (Herbicidal rate of 5% or less (almost no effect)) | 0 (Herbicidal rate of 5% or less (almost no effect)) | 0 (Herbicidal rate of 5% or less (almost no effect)) | 0 (Herbicidal rate of 5% or less (almost no effect)) | 3 (Herbicidal rate of 40% or more and less than 70%) | 0 (Herbicidal rate of 5% or less (almost no effect)) | 0 (Herbicidal rate of 5% or less (almost no effect)) | 0 (Herbicidal rate of 5% or less (almost no effect)) | 0 (Herbicidal rate of 5% or less (almost no effect)) | 3 (Herbicidal rate of 40% or more and less than 70%) | 5 (Herbicidal rate of 90% or more (almost completely withered)) |
